In paper PMC7012052, “Discovery of antimicrobial compounds targeting bacterial type FAD synthetases” (Journal of Enzyme Inhibition and Medicinal Chemistry, 2017):
Values after ≈ are worked out from the molar mass of the structure shown. Where two headings read alike, the source gives them in different places. Marks after values point to notes of the source that are not given here.

Key:
CaFADS RFK activity = molecular target: T1, CaFADS RFK activity (Corynebacterium ammoniagenes, UniProt Q59263); test: RFK activity of CaFADS in the presence of HTS hits (flavins separated by HPLC); assay type: biochemical; conditions: pH 7, read-out: % Residual RFK activity
T1 construct: Recombinant CaFADS was overexpressed in BL21 (DE3) E. coli cells and purified as previously described; made in house; host or cells: E. coli BL21 (DE3)
Description: (§1) Then, the RFK and FMNAT reactions were individually assayed in the presence of the HTS hits at 25 °C. Reaction mixtures contained 50 µM ATP, 5 µM RF, 0.4 µM CaFADS in 20 mM PIPES, pH 7.0, 0.8 mM MgCl2, when assaying the RFK activity, and 50 µM ATP, 10 µM FMN, 0.4 µM CaFADS in 20 mM PIPES, pH 7.0, 10 mM MgCl2 when measuring the FMNAT reaction. […] Finally, reactions were stopped by boiling the samples at 100 °C for 5 min, and the precipitated protein was eliminated through centrifugation. The transformation of RF into FMN or FAD was evaluated through flavins separation by HPLC, as previously described. […] When assaying the HTS hits against the FMNAT activity of SpnFADS, similar conditions were used but samples contained 3 mM sodium dithionite to maintain the flavin in its reduced state. Data were processed as previously reported. All the experiments were performed in triplicate.

SpnFADS RFK activity = SpnFADS RFK activity (Streptococcus pneumoniae, UniProt A0A0H2UPY5); test: biochemical; conditions: for IC50: compounds assayed 0–100 μM, 25 °C
Description: as §1
(§2) Experiments were performed and analysed through HPLC as described above. Positive controls (without any hit compound) were included in every reaction set. DMSO concentration was kept at 2.5% in all samples. All the experiments were performed in triplicate.

SpnFADS FMNAT activity = SpnFADS FMNAT activity (Streptococcus pneumoniae, UniProt A0A0H2UPY5); test: biochemical
Description: as §1, §2

[1] = system: M. tuberculosis ATCC 27,294; test: MIC by resazurin microplate assay (broth microdilution); assay type: cell-based, Mycobacterium tuberculosis
CaFADS = molecular target: T2, CaFADS (Corynebacterium ammoniagenes, UniProt Q59263); test: Isothermal titration calorimetry (ITC) of hits binding to CaFADS; conditions: ITC 25 °C
T2 construct: Recombinant CaFADS was overexpressed in BL21 (DE3) E. coli cells and purified as previously described; made in house; host or cells: E. coli BL21 (DE3)
Description: ITC experiments were performed to characterise the protein’s affinity for the selected compounds, as also the thermodynamic parameters that drive the interaction. Experiments were carried out in an AutoITC200 (MicroCal) thermostated at 25 °C. In these experiments, ∼400 µM of each compound were used to titrate ∼25 µM CaFADS contained in a 200 µL cell. However, when saturation of the protein was not reached, higher concentrations of compounds were employed. The titrations were performed by stepwise injections of the titrating compound. Up to 19 injections of 2 µl were added to the cell sample and mixed using a 1000 rpm stirrer syringe. The compounds and the protein were dissolved in 20 mM PIPES, pH 7.0, 10 mM MgCl2 and degassed prior to titration. DMSO was added to the protein and ligand samples, until reach a final concentration of 3%. The association constant (Ka), the enthalpy variation (ΔH) and the binding stoichiometry (N), were obtained through non-lineal regression of the data to a model for one or two independent binding sites, implemented in Origin 7.0 (OriginLab) as previously described[27]^,[29]. The entropic contribution (−TΔS), the Gibbs free energy (ΔG) and the dissociation constant (Kd) were obtained through essential thermodynamic equations.

CaFADS FMNAT activity = molecular target: T3, CaFADS FMNAT activity (Corynebacterium ammoniagenes, UniProt Q59263); test: FMNAT activity of CaFADS: residual activity, IC50, inhibition mechanism (HPLC); assay type: biochemical; conditions: for Inhibition mechanism / Ki: CaFADS FMNAT; for Ki: global Lineweaver–Burk fit; for remaining activity at 250 µM: pH 7, read-out: % Residual FMNAT activity; for remaining activity at 50 µM: read-out: Residual activity (FMNAT)
T3 construct: Recombinant CaFADS was overexpressed in BL21 (DE3) E. coli cells and purified as previously described; made in house; host or cells: E. coli BL21 (DE3)
Description: as §1, §2
All the experiments were carried out in 20 mM PIPES, 10 mM MgCl2, pH 7.0, 2.5% DMSO at 25 °C, being the final reaction volume 500 µl. The reactions were initiated by addition of CaFADS at a final concentration of ∼40 nM, followed by 1 min incubation. The flavin composition of the supernatant was analysed as previously described. All the experiments were performed in triplicate. The effect of the inhibitors on Km and Vmax was determined by fitting the data sets to the Michaelis–Menten model. Additionally, data were globally fit to Lineweaver–Burk equations for competitive, uncompetitive, non-competitive or mixed inhibition, yielding Ki, as well as Ki′ when applying, for each compound (Equations (1–4), respectively).

[2] = system: C. ammoniagenes ATCC 6872; test: MIC by resazurin microplate assay (broth microdilution); assay type: cell-based, Corynebacterium ammoniagenes; conditions: Corynebacterium ammoniagenes, ATCC6872, 16 h
S. pneumoniae ATCC 49619 = test: as above; assay type: cell-based, Streptococcus pneumoniae
[3] = read-out: RFK activity Res. activity
[4] = for 24: Site 1–2, average value where N ≈ 2
[5] = saturating ATP (regarding the FMN substrate)
[6] = saturating FMN (regarding the ATP substrate)
[7] = saturating ATP, varying FMN, inhibitor 0.2 μM
[8] = saturating ATP, varying FMN, inhibitor […]
[9] = saturating FMN, varying ATP, inhibitor 0.2 μM
[10] = saturating FMN, varying ATP, inhibitor 0.4 μM
[11] = saturating FMN, varying ATP, inhibitor […]

T2 sequence (Q59263 whole entry): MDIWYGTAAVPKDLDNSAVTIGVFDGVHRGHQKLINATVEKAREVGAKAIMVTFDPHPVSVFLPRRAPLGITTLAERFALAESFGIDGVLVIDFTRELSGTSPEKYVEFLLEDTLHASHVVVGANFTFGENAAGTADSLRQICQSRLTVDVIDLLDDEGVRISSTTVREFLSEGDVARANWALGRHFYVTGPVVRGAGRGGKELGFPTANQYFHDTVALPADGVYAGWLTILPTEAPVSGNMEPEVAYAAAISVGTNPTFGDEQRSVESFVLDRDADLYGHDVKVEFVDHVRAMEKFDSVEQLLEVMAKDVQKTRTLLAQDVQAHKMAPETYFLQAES
T3 sequence (Q59263 whole entry): as above
Chain of SpnFADS FMNAT activity (A0A0H2UPY5 entry or part of it): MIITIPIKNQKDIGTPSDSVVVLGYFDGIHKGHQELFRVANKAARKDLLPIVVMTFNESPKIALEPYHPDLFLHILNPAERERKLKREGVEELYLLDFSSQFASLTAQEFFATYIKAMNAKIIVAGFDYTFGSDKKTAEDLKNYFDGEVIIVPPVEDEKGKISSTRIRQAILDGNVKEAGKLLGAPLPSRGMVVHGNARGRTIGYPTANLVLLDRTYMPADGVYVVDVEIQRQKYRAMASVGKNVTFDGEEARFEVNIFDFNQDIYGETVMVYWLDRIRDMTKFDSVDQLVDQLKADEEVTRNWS
Chain of SpnFADS RFK activity (A0A0H2UPY5 entry or part of it): as above
T1 sequence (Q59263 whole entry): as the sequence (Q59263 whole entry) above

Molecule `Cc1cc2c(C(C)C)c(O)c(O)c(C=O)c2c(O)c1-c1c(C)cc2c(C(C)C)c(O)c(O)c(C=O)c2c1O` [HTS hit 27, gossypol] has a remaining activity at 250 µM (CaFADS RFK activity) of at least 75%, an IC50 (SpnFADS RFK activity; RFK activity IC50, SpnFADS) of 6 ± 1 µM and a remaining activity at 100 µM (SpnFADS RFK activity; [3]) of 25 ± 4%. The IC50 (SpnFADS FMNAT activity) was 51 ± 6 µM, the remaining activity at 100 µM (SpnFADS FMNAT activity; read-out: FMNAT activity Res. activity) was 0% and the MIC ([1]; Mycobacterium tuberculosis, ATCC27, 144 h, read-out: Minimal inhibitory concentration (MIC) M. tuberculosis) was over 64 µM. The “N (binding stoichiometry)” value (CaFADS; 3% DMSO, for 24: Site 1–2) was “≈ 2”, the Kd (CaFADS; 3% DMSO, for 24: Site 1–2, average value for two hit molecules where N ≈ 2, read-out: Kd) was 0.7 ± 0.07 µM and the ΔG (CaFADS; [4]) was −8.4 ± 0.9^a kcal/mol. For the same molecule, the ΔH (CaFADS; [4]) was −3.1 ± 0.1^a kcal/mol, the “−TΔS” value (CaFADS; [4]) was −5.3 ± 0.4^a kcal/mol and the IC50 (CaFADS FMNAT activity) was 0.5 ± 0.1 µM. The Inhibition mechanism (CaFADS FMNAT activity; [5]) was “Non-competitive”, the Inhibition mechanism (CaFADS FMNAT activity; [6]) was “Competitive” and the Ki (CaFADS FMNAT activity; saturating ATP, varying FMN) was 0.08 ± 0.01 µM. For the same molecule, the Ki (CaFADS FMNAT activity; saturating FMN, varying ATP) was 0.06 ± 0.01 µM, the remaining activity at 250 µM (CaFADS FMNAT activity) was at most 5% and the remaining activity at 50 µM (CaFADS FMNAT activity) was 6.9 ± 0.8%. The apparent kcat (CaFADS FMNAT activity; saturating ATP, varying FMN, inhibitor 0.05 μM) was 0.36 ± 0.0483 s⁻¹, the apparent kcat (CaFADS FMNAT activity; saturating ATP, varying FMN, inhibitor 0.1 μM) was 0.268 ± 0.0283 s⁻¹ and the apparent kcat (CaFADS FMNAT activity; [7]) was 0.252 ± 0.025 s⁻¹. For the same molecule, the apparent kcat (CaFADS FMNAT activity; saturating ATP, varying FMN, inhibitor 1 μM) was 0.108 ± 0.0033 s⁻¹, the apparent kcat (CaFADS FMNAT activity; [8]) was 0.167 ± 0.013 s⁻¹ and the apparent kcat (CaFADS FMNAT activity; saturating FMN, varying ATP, inhibitor 0.1 μM) was 0.38 ± 0.0217 s⁻¹. The apparent kcat (CaFADS FMNAT activity; [9]) was 0.37 ± 0.0233 s⁻¹, the apparent kcat (CaFADS FMNAT activity; [10]) was 0.302 ± 0.0267 s⁻¹ and the apparent kcat (CaFADS FMNAT activity; saturating FMN, varying ATP, inhibitor 1 μM) was 0.208 ± 0.0083 s⁻¹. The apparent kcat (CaFADS FMNAT activity; [11]) was 0.285 ± 0.055 s⁻¹, the MIC ([2]; read-out: Minimal inhibitory concentration (MIC) C. ammoniagenes, assayed 0.125–64 μM, 16 h at 37 °C, BHI) was about 64 µM (≈ 33.2 µg/mL) and the MIC (S. pneumoniae ATCC 49619; Streptococcus pneumoniae, ATCC49619, 10 h, read-out: Minimal inhibitory concentration (MIC) S. pneumoniae) was over 64 µM.

`COc1cc(-c2ccc(/N=N/c3ccc4c(S(=O)(=O)O)cc(S(=O)(=O)O)c(N)c4c3O)c(OC)c2)ccc1/N=N/c1ccc2c(S(=O)(=O)O)cc(S(=O)(=O)O)c(N)c2c1O` [HTS hit 24, Chicago sky blue 6B] was tested, and the remaining activity at 250 µM (CaFADS RFK activity) was at least 75%, the IC50 (SpnFADS RFK activity; SpnFADS, read-out: RFK activity IC50) was over 100 µM and the activity at 100 µM (SpnFADS RFK activity; [3]) was 84 ± 9%. For the same molecule, the activity at 100 µM (SpnFADS FMNAT activity; SpnFADS, 100 μM of each compound, 25 °C, n = 3, mean ± SD, read-out: FMNAT activity Res. activity) was 0%, the IC50 (SpnFADS FMNAT activity; SpnFADS, compounds assayed 0–100 μM, 25 °C, read-out: FMNAT activity IC50) was 70 ± 6 µM and the MIC ([1]; Mycobacterium tuberculosis, ATCC27, 144 h; read-out: Minimal inhibitory concentration (MIC) M. tuberculosis) was 16 to 32 µM (≈ 14.5 to 29 µg/mL). For the same molecule, the “N (binding stoichiometry)” value (CaFADS; 3% DMSO, for 24: Site 1–2) was “≈ 2”, the ΔG (CaFADS; Site 3) was -5.2 ± 0.7 kcal/mol and the ΔH (CaFADS; Site 3) was 18.4 ± 2.2 kcal/mol. For the same molecule, the “−TΔS” value (CaFADS; Site 3) was -23.6 ± 1.9 kcal/mol, the “N (binding stoichiometry)” value (CaFADS; Site 3 (low affinity site)) was “≈ 1” and the ΔG (CaFADS; [4]) was −8.1 ± 1.0^a kcal/mol. The ΔH (CaFADS; [4]) was −4.2 ± 0.5^a kcal/mol, the “−TΔS” value (CaFADS; [4]) was −3.9 ± 0.5^a kcal/mol and the Kd (CaFADS; Kd, 3% DMSO, for 24: Site 1–2, average value for two hit molecules where N ≈ 2) was 1.1 ± 0.1 µM. For the same molecule, the Kd (CaFADS; Kd, Site 3 (low affinity site)) was 161 ± 20 µM, the IC50 (CaFADS FMNAT activity) was 0.4 ± 0.1 µM and the Inhibition mechanism (CaFADS FMNAT activity; [5]) was “Non-competitive”. For the same molecule, the Inhibition mechanism (CaFADS FMNAT activity; [6]) was “Uncompetitive”, the Ki (CaFADS FMNAT activity; saturating ATP, varying FMN) was 0.07 ± 0.01 µM and the Ki (CaFADS FMNAT activity; saturating FMN, varying ATP) was 0.08 ± 0.03 µM. The remaining activity at 250 µM (CaFADS FMNAT activity) was at most 5%, the remaining activity at 50 µM (CaFADS FMNAT activity) was 3.6 ± 0.2% and the apparent kcat (CaFADS FMNAT activity; [7]) was 0.163 ± 0.0217 s⁻¹. The apparent kcat (CaFADS FMNAT activity; saturating ATP, varying FMN, inhibitor 0.4 μM) was 0.0933 ± 0.01 s⁻¹, the apparent kcat (CaFADS FMNAT activity; saturating ATP, varying FMN, inhibitor 0.6 μM) was 0.095 ± 0.0217 s⁻¹ and the apparent kcat (CaFADS FMNAT activity; [8]) was 0.405 ± 0.0683 s⁻¹. The apparent kcat (CaFADS FMNAT activity; saturating FMN, varying ATP, inhibitor 0.04 μM) was 0.375 ± 0.08 s⁻¹, the apparent kcat (CaFADS FMNAT activity; [9]) was 0.0717 ± 0.0067 s⁻¹ and the apparent kcat (CaFADS FMNAT activity; [10]) was 0.03 ± 0.0017 s⁻¹. For the same molecule, the apparent kcat (CaFADS FMNAT activity; [11]) was 0.12 ± 0.0067 s⁻¹, the MIC ([2]; read-out: Minimal inhibitory concentration (MIC) C. ammoniagenes) was 16 to 32 µM (≈ 14.5 to 29 µg/mL) and the MIC (S. pneumoniae ATCC 49619; Streptococcus pneumoniae, ATCC49619, 10 h; read-out: Minimal inhibitory concentration (MIC) S. pneumoniae) was over 64 µM.
